Measurements from patent US6719969B1, “Treatment of liver disease and injury with CXC chemokines” (The Regents of The University of Michigan, priority 1999, dated 2004).

Columns and labels:
[1] = tested on: CD1 and BALB/c mice; assay: Acetaminophen lethality, pilot studies in CD1 and BALB/c mice; type: in vivo, mouse; conditions: 400 mg/kg i.p., 12 h fast
Protocol: Protocol 2: In the second series of studies, CD1, CXCR2ko and CXCR2wt mice were allowed free access to water for 12 h prior to an i.p. injection of 400 mg/kg acetaminophen. All acetaminophen challenged mice were fasted in this manner because previous studies have shown that fasting promotes hepatic susceptibility to acetaminophen toxicity by decreasing the inactivation of chemically reactive metabolites […], allowing these metabolites to bind hepatocyte proteins and cause cell damage (Whitcomb and Block, 1994; Pessayre et al., 1979; each incorporated herein by reference). […] Two hours prior to acetaminophen challenge, CD1 mice (n=1 0/group) were injected with 0.5 ml of normal rabbit serum or anti-mouse MIP-2 antiserum, and mouse survival was monitored for the subsequent 4 days. CXCR2ko and CXCR2wt mice (n=5/group) were injected i.p. with the same dose of acetaminophen, and mouse survival was monitored for 4 days.

[2] = tested on: CBA/J mice; assay: Acetaminophen dose response in CBA/J mice; type: in vivo, mouse; conditions: 8 h fast
Protocol: (§1) Six wk old female CBA/J mice (Jackson Laboratory, Bar Harbor, Me.) were fasted, but with free access to water, for 8 h prior to intraperitoneal (I.P.) injection of acetaminophen (Sigma) at 200 or 300 mg/kg, dissolved in normal saline. After injection, the animals were allowed free access to food. Mice were euthanized and liver was taken from the mice at various time points after acetaminophen injection into the mice.
To determine the level of acetaminophen that was necessary to induce liver damage, a dose response was performed. In these studies, normal CBA/J mice were fasted for 8 h and subsequently given an intraperitoneal injection of acetaminophen dissolved in PBS or PBS alone for control. Mouse survival was followed for 4 days when the study was terminated. 20 mice/group were used in 2 separate studies.

[3] = tested on: CBA/J mice treated with acetaminophen; assay: Exogenous SCF at lethal acetaminophen dose; type: in vivo, mouse
Protocol: as §1
Hepatic damage was measured using an AXIO-HOME microscope by 2 independent investigators. Sections of liver tissue (2 from each animal) were stained with hematoxylin and eosin and the area of hepatic damage was outlined and expressed as a % of total liver area examined.
In order to finally determine whether SCF has a role in protecting the animals from acetaminophen toxicity, 1 μg of recombinant murine SCF or saline was injected i.v. at the time of or within 30 min. of acetaminophen challenge. The survival of animals was recorded for 4 days and the study was terminated. % Survival data was collected from 2 separate studies with a total of 20 mice in each treatment group.

[4] = tested on: hepatocytes

CC(=O)Nc1ccc(O)cc1 [acetaminophen]
Lethality [1]: approximately 10%
Lethality ([2]; 200 mg/kg i.p.): no lethality
Lethality ([2]; 300 mg/kg i.p., by 48 h): ~100%

B1: SCF: recombinant murine stem cell factor (protein)
chain: KEICGNPVTDNVKDITKLVANLPNDYMITLNYVAGMDVLPSHCWLRDMVIQLSLSLTTLLDKFSNISEGLSNYSIIDKLGKIVDDLVLCMEENAPKNIKESPKRPETRSFTPEEFFSIFNRSIDAFKDFMVASDTSDCVLSSTLGPEKDSRVSVTKPFMLPPVA
Survival ([3]; 1 ug i.v. at or within 30 min of lethal acetaminophen dose, 4 days): 90%
Liver histology ([3]; 300 mg/kg acetaminophen, 1 ug SCF): no necrotic areas
Hepatocyte proliferation in vitro [4]: can directly induce hepatocyte proliferation in vitro
